Key:
Test in all cases: target protein degradation by immunoblotting (Experimental Example 6)
Bcl-2 = type: cell-based, human; details: HEK293T cell line, 24 hours
Description: (§1) In order to evaluate the target proteion degradation efficacy by Examples 14 to 33 according the disclosure, the following experiment was conducted.
(§2) First, as cell lines primarily expressing the target protein, Human kidney-derived cancer cells, HEK293T (ATCC, CRL-3216), human prostate-derived cancer cells, LNcap (Korean Cell Line Bank, Korean Cell Line Research Foundation, KCLB No. 80018), mouse embryonic fibroblast, MEF (ATCC, SCRC-1008), human cervical cancer cells, HeLa (Korean Cell Line Bank, Korean Cell Line Research Foundation, KCLB No. 10002), human blood-derived cells, K562 (Korean Cell Line Bank, Korean Cell Line Research Foundation, KCLB No. 10243), human blood-derived cells, THP-1 (Korean Cell Line Bank, Korean Cell Line Research Foundation, KCLB No. 40202), human lung-derived cancer cells, A549 (Korean Cell Line Bank, Korean Cell Line Research Foundation, KCLB No. 10185), human breast-derived cancer cells, MCF7 (Korean Cell Line Bank, Korean Cell Line Research Foundation, KCLB No. 30022), human neuroblastoma, SH-SY5Y cell lines (Korean Cell Line Bank, Korean Cell Line Research Foundation, KCLB No. 22266), human pancreatic cancer cells, PANC-1 (Korean Cell Line Bank, Korean Cell Line Research Foundation, KCLB No. 21469) were cultured, respectively, in an incubator maintained at 5% carbon dioxide, using DMEM containing 10% FBS and 1% streptomycin/penicillin, RPMI1640, or MEM medium, and then the respective cells were dispensed in 12-well plate. Additional incubation was performed for 24 hours to ensure that each cell completely fixed to the surface of the plate.
(§3) In order to confirm whether Compounds A to W of Examples 14 to 33 degrade the target protein respectively, the cultured cells were treated with the compound of each example for 24 hours and then collected.
(§4) In this case, HEK293T, which is human kidney-derived cancer cells, LNcap, which is human prostate-derived cancer cells, and MEF cell line, which is mouse embryonic fibroblasts, were treated with Example 14 (Compound A). HEK293T, which is human kidney-derived cancer cells, was treated with Example 15 (Compound B). HEK293T cell line, which is human kidney-derived cancer cells, and HeLa cell line, which is cervical-derived cancer cells, were treated with Example 16 (Compound C). HEK293T cell line, which is human kidney-derived cancer cells, was treated with Example 17 (Compound D). K562 cell line, which is human blood-derived cells, was treated with Example 18 (Compound E). HEK293T cell line, which is human kidney-derived cancer cells, was treated with Example 19 (Compound F). THP-1 cell line, which is human blood-derived cells, was treated with Example 20 (Compound G). A549 cell line, which is human lung-derived cancer cells, was treated with Example 21 (Compound H). A549 cell line, which is human lung-derived cancer cells, was treated with Example 22 (Compound I). MCF7 cell line, which is human breast-derived cancer cells, was treated with Example 23 (Compound J). HEK293T cell line, which is […], was treated with Example 24 (Compound L). SH-SY5Y, which is human neuroblastoma, and HeLa cell line, which is cervical-derived cancer cells, were treated with Example 25 (Compound M). THP-1 cell line, which is human blood-derived cells, was treated with Example 26 (Compound P). SH-SY5Y, which is human neuroblastoma, and HeLa cell line, which is cervical-derived cancer cells, were treated with Example 27 (Compound Q). SH-SY5Y, which is human neuroblastoma, and HeLa cell line, which is cervical-derived cancer cells, were treated with Example 28 (Compound R). HeLa cell line, a human cervical-derived cancer cell, was treated with Example 29 (Compound S). SH-SY5Y cell line, which is human neuroblastoma, was treated with Example 30 (Compound T). SH-SY5Y cell line, which is human neuroblastoma, was treated with Example 31 (Compound U). PANC-1 cell line, which is human pancreatic-derived cancer cells, was treated with Example 32 (Compound V). […]

ERα = molecular target: T1, ERα (Homo sapiens, UniProt P03372); type: cell-based; details: MCF7 cell line, 24 hours
T1 construct: as cell lines primarily expressing the target protein; endogenous in cells; host or cells: MCF7
Description: as §1, §2, §3, §4

CK2 = type: cell-based, human; details: HEK293T cell line, 24 hours
Description: as §1, §2, §3, §4

c-Abl = molecular target: T2, c-Abl (Homo sapiens, UniProt P00519); type: cell-based; details: K562 cell line, 24 hours
T2 construct: as cell lines primarily expressing the target protein; endogenous in cells; host or cells: K562
Description: as §1, §2, §3, §4

BCR-Abl = molecular target: T3, BCR-Abl (Homo sapiens, UniProt P00519); type: cell-based; details: K562 cell line, 24 hours
T3 construct: BCR (N-terminal fusion partner, P11274); endogenous in cells; host or cells: K562; the other entry of the earlier key: BCR (P11274, Breakpoint cluster region protein)
Description: as §1, §2, §3, §4

T1 sequence (P03372 whole entry): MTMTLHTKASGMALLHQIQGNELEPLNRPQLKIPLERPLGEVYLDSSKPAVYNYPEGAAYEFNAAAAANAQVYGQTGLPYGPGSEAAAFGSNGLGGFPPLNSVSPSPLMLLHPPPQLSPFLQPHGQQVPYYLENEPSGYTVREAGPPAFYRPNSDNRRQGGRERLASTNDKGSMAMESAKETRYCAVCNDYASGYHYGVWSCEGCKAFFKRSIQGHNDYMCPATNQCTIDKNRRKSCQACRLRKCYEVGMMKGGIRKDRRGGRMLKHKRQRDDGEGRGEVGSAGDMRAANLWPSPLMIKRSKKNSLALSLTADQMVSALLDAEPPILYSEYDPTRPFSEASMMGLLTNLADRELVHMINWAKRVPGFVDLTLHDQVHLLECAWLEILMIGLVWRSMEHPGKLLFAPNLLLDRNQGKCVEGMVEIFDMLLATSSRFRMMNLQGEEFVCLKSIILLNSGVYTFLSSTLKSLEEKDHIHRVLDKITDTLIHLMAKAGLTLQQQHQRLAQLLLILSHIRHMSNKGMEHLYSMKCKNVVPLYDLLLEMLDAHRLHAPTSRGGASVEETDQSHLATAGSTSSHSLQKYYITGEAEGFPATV
T3 sequence (P00519 with tags, fused parts or gaps): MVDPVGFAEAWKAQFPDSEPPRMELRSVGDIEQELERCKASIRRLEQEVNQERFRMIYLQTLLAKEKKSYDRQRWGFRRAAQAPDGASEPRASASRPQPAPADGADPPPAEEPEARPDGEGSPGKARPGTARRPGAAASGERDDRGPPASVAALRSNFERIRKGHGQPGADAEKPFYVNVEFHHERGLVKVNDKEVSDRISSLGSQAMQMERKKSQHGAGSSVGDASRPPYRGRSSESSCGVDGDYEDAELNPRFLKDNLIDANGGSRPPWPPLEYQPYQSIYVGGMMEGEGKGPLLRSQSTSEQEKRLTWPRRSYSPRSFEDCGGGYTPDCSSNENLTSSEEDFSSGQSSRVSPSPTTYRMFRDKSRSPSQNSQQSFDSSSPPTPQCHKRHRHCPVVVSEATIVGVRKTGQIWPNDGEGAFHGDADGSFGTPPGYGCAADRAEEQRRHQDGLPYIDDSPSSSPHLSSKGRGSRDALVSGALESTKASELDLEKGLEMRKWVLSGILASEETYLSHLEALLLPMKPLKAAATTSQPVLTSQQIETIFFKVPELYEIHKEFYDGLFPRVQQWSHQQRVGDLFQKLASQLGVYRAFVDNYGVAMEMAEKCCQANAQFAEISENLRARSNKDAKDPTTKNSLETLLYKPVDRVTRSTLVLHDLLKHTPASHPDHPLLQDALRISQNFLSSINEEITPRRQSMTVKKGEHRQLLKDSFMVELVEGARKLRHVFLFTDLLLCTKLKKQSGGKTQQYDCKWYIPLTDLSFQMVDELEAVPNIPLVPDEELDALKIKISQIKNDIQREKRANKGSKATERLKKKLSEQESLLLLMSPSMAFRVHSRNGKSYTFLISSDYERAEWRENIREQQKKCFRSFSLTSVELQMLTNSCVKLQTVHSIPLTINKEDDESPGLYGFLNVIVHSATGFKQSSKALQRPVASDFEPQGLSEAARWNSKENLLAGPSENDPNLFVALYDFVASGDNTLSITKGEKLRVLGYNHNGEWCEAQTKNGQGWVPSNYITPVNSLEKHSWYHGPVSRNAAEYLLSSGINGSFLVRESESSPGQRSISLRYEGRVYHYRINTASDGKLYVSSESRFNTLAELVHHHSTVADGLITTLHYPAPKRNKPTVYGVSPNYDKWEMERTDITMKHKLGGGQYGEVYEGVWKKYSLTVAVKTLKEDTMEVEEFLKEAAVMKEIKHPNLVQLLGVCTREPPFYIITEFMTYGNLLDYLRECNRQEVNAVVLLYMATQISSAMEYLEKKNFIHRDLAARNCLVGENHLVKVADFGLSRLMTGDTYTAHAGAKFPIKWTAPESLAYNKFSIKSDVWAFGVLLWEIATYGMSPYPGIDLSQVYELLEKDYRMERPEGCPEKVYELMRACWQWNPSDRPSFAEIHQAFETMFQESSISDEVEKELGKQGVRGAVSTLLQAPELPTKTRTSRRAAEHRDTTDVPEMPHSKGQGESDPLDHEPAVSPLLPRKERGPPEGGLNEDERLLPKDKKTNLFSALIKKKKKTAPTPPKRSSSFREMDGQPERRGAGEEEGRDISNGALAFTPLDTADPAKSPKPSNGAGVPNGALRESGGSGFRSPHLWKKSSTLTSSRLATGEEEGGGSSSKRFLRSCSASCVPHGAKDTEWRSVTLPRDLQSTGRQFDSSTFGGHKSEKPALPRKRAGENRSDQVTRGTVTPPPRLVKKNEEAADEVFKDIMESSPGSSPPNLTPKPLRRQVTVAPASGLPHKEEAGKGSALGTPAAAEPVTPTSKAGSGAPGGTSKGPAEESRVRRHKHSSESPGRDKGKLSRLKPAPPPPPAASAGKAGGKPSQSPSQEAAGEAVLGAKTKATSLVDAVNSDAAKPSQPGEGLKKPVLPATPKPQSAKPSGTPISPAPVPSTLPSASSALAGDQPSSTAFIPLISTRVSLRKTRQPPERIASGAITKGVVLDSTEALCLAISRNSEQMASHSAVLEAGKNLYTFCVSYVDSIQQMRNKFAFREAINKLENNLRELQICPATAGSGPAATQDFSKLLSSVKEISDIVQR
T3 sequence (Q13501 2-440 partner limits assumed): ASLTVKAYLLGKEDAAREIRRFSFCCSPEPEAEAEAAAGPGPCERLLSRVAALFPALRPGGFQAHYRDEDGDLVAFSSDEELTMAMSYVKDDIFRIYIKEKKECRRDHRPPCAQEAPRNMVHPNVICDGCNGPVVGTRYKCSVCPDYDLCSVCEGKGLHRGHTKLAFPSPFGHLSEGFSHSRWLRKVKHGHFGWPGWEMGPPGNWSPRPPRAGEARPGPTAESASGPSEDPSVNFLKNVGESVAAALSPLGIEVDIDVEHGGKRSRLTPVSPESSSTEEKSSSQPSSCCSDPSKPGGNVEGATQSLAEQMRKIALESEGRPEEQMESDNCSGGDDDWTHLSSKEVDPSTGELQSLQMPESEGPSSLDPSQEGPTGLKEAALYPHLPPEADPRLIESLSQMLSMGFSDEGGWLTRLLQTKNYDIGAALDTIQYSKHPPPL
T2 sequence (P00519 whole entry): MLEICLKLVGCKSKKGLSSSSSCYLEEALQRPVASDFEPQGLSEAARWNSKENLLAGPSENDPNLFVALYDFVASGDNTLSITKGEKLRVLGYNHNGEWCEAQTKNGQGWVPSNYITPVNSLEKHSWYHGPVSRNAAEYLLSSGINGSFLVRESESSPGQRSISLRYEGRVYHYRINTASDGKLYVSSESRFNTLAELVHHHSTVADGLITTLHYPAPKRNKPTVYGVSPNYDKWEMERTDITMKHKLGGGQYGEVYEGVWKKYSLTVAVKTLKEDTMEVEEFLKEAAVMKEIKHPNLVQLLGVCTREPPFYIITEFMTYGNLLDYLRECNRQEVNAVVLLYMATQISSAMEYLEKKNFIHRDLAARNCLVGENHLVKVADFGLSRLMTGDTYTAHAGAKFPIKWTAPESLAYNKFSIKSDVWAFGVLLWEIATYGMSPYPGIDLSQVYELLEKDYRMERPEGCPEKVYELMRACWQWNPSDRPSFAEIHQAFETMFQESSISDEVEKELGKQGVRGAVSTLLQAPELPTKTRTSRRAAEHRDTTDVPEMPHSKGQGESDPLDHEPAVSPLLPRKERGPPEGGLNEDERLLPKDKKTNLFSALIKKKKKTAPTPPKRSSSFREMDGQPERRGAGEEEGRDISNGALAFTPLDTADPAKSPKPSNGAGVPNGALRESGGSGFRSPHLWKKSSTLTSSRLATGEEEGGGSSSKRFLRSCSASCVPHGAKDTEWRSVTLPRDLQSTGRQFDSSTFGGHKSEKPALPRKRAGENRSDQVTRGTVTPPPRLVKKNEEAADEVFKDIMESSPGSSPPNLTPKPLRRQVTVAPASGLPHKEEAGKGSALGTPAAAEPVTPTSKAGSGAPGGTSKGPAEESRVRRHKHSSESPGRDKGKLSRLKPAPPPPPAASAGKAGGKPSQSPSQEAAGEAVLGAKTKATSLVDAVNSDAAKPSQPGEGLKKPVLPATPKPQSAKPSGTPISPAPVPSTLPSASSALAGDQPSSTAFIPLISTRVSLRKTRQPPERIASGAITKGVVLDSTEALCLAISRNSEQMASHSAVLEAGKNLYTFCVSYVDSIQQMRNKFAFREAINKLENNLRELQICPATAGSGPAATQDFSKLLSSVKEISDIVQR
T2 sequence (Q13501 2-440 partner limits assumed): as the sequence (Q13501 2-440 partner limits assumed) above

O=C(O)c1ccc2c(c1)nc(Nc1cc(Cl)cc(NCCOCCOCCOCCOCCOCCNC[C@@H](O)COc3ccc(OCc4ccc(F)cc4)c(OCc4ccc(F)cc4)c3)c1)c1ccncc12 [Example 24, (R)-5-((3-((21-(3,4-bis((4-fluorobenzyl)oxy)phenoxy)-20-hydroxy-3,6,9,12,15-pentaoxa-18-azahenicosyl)amino)-5-chlorophenyl)amino)benzo[c][2,6]naphthyridine-8-carboxylic acid]
degradation of target protein Bcl-2 (decrease in level vs Control) (Bcl-2): can be degraded

CCN(CCCCNCCOCCOCCNCc1ccc(OCc2ccccc2)c(OCc2ccccc2)c1)CCOc1ccc(C(=O)c2c(-c3ccc(O)cc3)sc3cc(O)ccc23)cc1 [Example 23, (4-((1-(3,4-bis(benzyloxy)phenyl)-16-ethyl-5,8-dioxa-2,11,16-triazaoctadecan-18-yl)oxy)phenyl) (6-hydroxy-2-(4-hydroxyphenyl)benzo[b]thiophen-3-yl)methanone]
degradation of target protein ERα (decrease in level vs Control) (ERα): can be degraded

O=C(O)c1ccc2c(c1)nc(Nc1cccc(NCCOCCOCCNC[C@@H](O)COc3ccc(OCc4ccccc4)c(OCCc4ccccc4)c3)c1)c1ccncc12 [Example 19, (R)-5-((3-((2-(2-(2-((3-(4-(benzyloxy)-3-phenethoxyphenoxy)-2-hydroxypropyl)amino)ethoxy)ethoxy)ethyl)amino)phenyl)amino)benzo[c][2,6]naphthyridine-8-carboxylic acid]
degradation of target protein CK2 (decrease in level vs Control) (CK2): can be degraded

Cc1nc(Nc2ncc(C(=O)Nc3c(C)cccc3Cl)s2)cc(N2CCN(CCNCCOCCOCCNC[C@@H](O)COc3ccc(OCc4ccccc4)c(OCCCc4ccccc4)c3)CC2)n1 [Example 18, (R)-2-((6-(4-(15-(4-(benzyloxy)-3-(3-phenylpropoxy)phenoxy)-14-hydroxy-6,9-dioxa-3,12-diazapentadecyl)piperazin-1-yl)-2-methylpyrimidin-4-yl)amino)-N-(2-chloro-6-methylphenyl)thiazole-5-carboxamide]
degradation of target protein c-Abl (decrease in level vs Control) (c-Abl): can be degraded
degradation of target protein BCR-Abl (decrease in level vs Control) (BCR-Abl): can be degraded

From patent publication US12383624B2, “Cargo delivery system and composition comprising the same” (SEOUL NATIONAL UNIVERSITY R&DB FOUNDATION, priority 2018, dated 2025)
